Test systems include ACHN renal; EKVX NSCLC; HCC-2998 colon; NCI-H226 lung; OVCAR-3 ovarian; SK-MEL-5 melanoma; SNB-19 CNS; CCRF-CEM leukemia; NCI-H522 lung.
What all share (experiment): NCI anticancer screen, dose series, 48 h

Values joined by “and” are separate entries in the source; they are usually repeats but may differ in a detail not shown here. Identical values can stand only once.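 The compound was tested at five concentrations on cells cultured in 96-well plates, with a 48-hour exposure period. GI50 = concentration required for 50% inhibition of growth. TGI: concentration producing complete growth inhibition.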

As for `COC(=O)Cc1cc(=O)n2c([nH]c3ccccc32)c1C#N`, the TGI in the test with ACHN renal, in the test on EKVX NSCLC, in the test on HCC-2998 colon, in the test with NCI-H226 lung, in the test with OVCAR-3 ovarian and in the test with SK-MEL-5 melanoma was over 100 µM in each case. This molecule also displayed a TGI in the test on SNB-19 CNS of over 100 µM.

Regarding `C#Cc1cc(CN(CC(=O)OC(C)(C)C)CC(=O)OC(C)(C)C)nc(CN(CC(=O)OC(C)(C)C)CC(=O)OC(C)(C)C)c1`, the TGI with ACHN renal was 77 µM; with CCRF-CEM leukemia, 7.93 µM; in the test with EKVX NSCLC it was 49.3 µM; with HCC-2998 colon it was 33.9 µM; with NCI-H226 lung it was 7.34 µM; in the test on NCI-H522 lung, 4.22 µM. In addition, the TGI was over 100 µM with OVCAR-3 ovarian, 11.3 µM in the test with SK-MEL-5 melanoma and 15.1 µM in the test on SNB-19 CNS.

As to `CC(C)c1ccc2nc3ccc(C(=O)NCCN4CCN(c5ccccc5)CC4)cn3c(=O)c2c1`, the TGI in the test with CCRF-CEM leukemia, in the test with EKVX NSCLC, in the test on HCC-2998 colon, in the test on NCI-H226 lung, in the test on NCI-H522 lung and in the test with OVCAR-3 ovarian was over 100 µM throughout. The results for the TGI in the test with SK-MEL-5 melanoma and in the test on SNB-19 CNS were 7.81 µM and over 100 µM, respectively.

On to `c1ccc2c(c1)[nH]c1c2ncc2[nH]c3ccccc3c21`, for which the TGI with ACHN renal was 16.3 µM; in the test with CCRF-CEM leukemia it was 9.45 µM; in the test on EKVX NSCLC, 33.1 µM; in the test with HCC-2998 colon it was 7.07 µM; in the test with NCI-H226 lung it was 49.1 µM; with NCI-H522 lung, 21 µM. The results for the TGI in the test on OVCAR-3 ovarian, in the test with SK-MEL-5 melanoma and in the test on SNB-19 CNS were 6.96 µM, 17.2 µM and 10.7 µM, respectively.

With `Cc1c(CC/C(=N\Nc2ccc([N+](=O)[O-])cc2[N+](=O)[O-])c2ccccc2)c2ccccc2n1C`, the TGI in the test with ACHN renal was over 100 µM; with CCRF-CEM leukemia it was over 66.6 µM; in the test on EKVX NSCLC, over 100 µM; in the test on HCC-2998 colon it was over 100 µM; with NCI-H226 lung it was over 100 µM; with NCI-H522 lung it was over 100 µM. Also, the TGI with OVCAR-3 ovarian, with SK-MEL-5 melanoma and in the test on SNB-19 CNS was over 100 µM each time.

As for `Cc1ccc(NC(=O)CC2C(=O)Nc3ccccc3S2=O)c(C)c1` (centres undefined), the TGI with ACHN renal is 72.9 µM; in the test on CCRF-CEM leukemia, 67 µM; in the test with EKVX NSCLC, over 100 µM; with HCC-2998 colon it was over 72.6 µM; in the test with NCI-H226 lung, 51.6 µM; in the test on NCI-H522 lung, 22 µM. For the same molecule, the TGI with OVCAR-3 ovarian was 23.2 µM; in the test with SK-MEL-5 melanoma it was 38.1 µM; in the test with SNB-19 CNS, 30.8 µM.

Turning to `CCCCCCCCCCCCC(CCCCCCCCCCCC)OP(=O)(O)O`, the TGI in the test with ACHN renal, in the test with CCRF-CEM leukemia, in the test on EKVX NSCLC, with HCC-2998 colon, in the test with NCI-H226 lung and with NCI-H522 lung was over 100 µM in each case. Moreover, the TGI in the test on OVCAR-3 ovarian, with SK-MEL-5 melanoma and in the test on SNB-19 CNS was over 100 µM throughout.

Regarding `CCOC(=O)C(C(=O)OCC)=c1sc(=C(C(=O)OCC)C(=O)OCC)s1`, the TGI with ACHN renal, in the test with CCRF-CEM leukemia, with EKVX NSCLC, in the test with HCC-2998 colon, with NCI-H522 lung and with OVCAR-3 ovarian was over 100 µM throughout. This molecule also came in with a TGI with SK-MEL-5 melanoma of over 100 µM.

In the case of `COc1ccc(C2C3=C(COC3=O)Oc3cc4c(cc32)OCO4)cc1` (centres undefined), the TGI was over 100 µM in the test on ACHN renal; over 100 µM in the test with CCRF-CEM leukemia; over 100 µM with EKVX NSCLC; 41.3 µM in the test on OVCAR-3 ovarian; over 100 µM with SK-MEL-5 melanoma; over 100 µM in the test with SNB-19 CNS.

Turning to `Cn1sc2ccccc2c1=S`, the TGI is 26.7 µM in the test on ACHN renal; 14.8 µM with CCRF-CEM leukemia; 27.6 µM with EKVX NSCLC; 45.9 µM with HCC-2998 colon; 53.4 µM with NCI-H226 lung; 9.36 µM in the test on NCI-H522 lung. Besides, the TGI in the test with OVCAR-3 ovarian is 10.5 µM; in the test on SK-MEL-5 melanoma it was 25.3 µM; with SNB-19 CNS, 31.4 µM.

On to `CC1=Nc2ccccc2C12C(c1ccccc1)C(c1ccccc1)C(=O)N1c3ccccc3CC12` (centres undefined), for which the TGI in the test with ACHN renal, with EKVX NSCLC, in the test with HCC-2998 colon, in the test on NCI-H226 lung, in the test on NCI-H522 lung and in the test with OVCAR-3 ovarian was over 100 µM throughout. For the same molecule, the TGI in the test on SK-MEL-5 melanoma and with SNB-19 CNS was over 100 µM throughout.

With `COC(=O)[C@@]12C=CC(=O)[C@H]3C[C@@H](C(C(C)C)C1)[C@]32OC` (some centres undefined), the TGI with ACHN renal, with CCRF-CEM leukemia, in the test on EKVX NSCLC, with HCC-2998 colon, in the test on OVCAR-3 ovarian and in the test with SK-MEL-5 melanoma was over 100 µM each time. The TGI in the test with SNB-19 CNS was over 100 µM.

Consider `O=NN(CCCl)C(=O)N[C@H]1CCCC[C@@H]1Cl`, for which the TGI with ACHN renal is over 100 µM; with CCRF-CEM leukemia it was 43.7 µM; in the test with EKVX NSCLC it was over 100 µM; with HCC-2998 colon, over 100 µM; in the test with NCI-H226 lung it was over 100 µM; in the test on NCI-H522 lung, over 100 µM. Also, the TGI with OVCAR-3 ovarian, in the test with SK-MEL-5 melanoma and in the test with SNB-19 CNS was over 100 µM in each case.

Take `COC(C)(C)[C@H](O)C(O)CC(C)[C@@H]1CCC23CC12CCC1[C@@]2(C)CCC(OC(C)=O)C(C)(C)C2CC(OC2OC(COC(C)=O)C(O)C(O)C2O)[C@]13C` (some centres undefined): the GI50 is 6.08 µM in the test on ACHN renal; 4.08 µM with CCRF-CEM leukemia; 10.9 µM in the test on EKVX NSCLC; 3.85 µM in the test on NCI-H522 lung; 4.26 µM in the test with OVCAR-3 ovarian; 10.2 µM in the test with SK-MEL-5 melanoma. Moreover, the TGI in the test with ACHN renal was 11.4 µM and 20 µM; with CCRF-CEM leukemia it was 9.67 µM and 17.3 µM; in the test on EKVX NSCLC it was 15.4 µM and 24.7 µM; with HCC-2998 colon it was 4.94 µM; with NCI-H226 lung it was 16.9 µM; with NCI-H522 lung it was 6.72 µM and 17.7 µM. Further, the TGI was 10.8 µM and 15.9 µM in the test with OVCAR-3 ovarian; 12.8 µM and 23.3 µM in the test on SK-MEL-5 melanoma; 14.5 µM and 20 µM in the test on SNB-19 CNS.

Turning to `COC(=O)C1=C(C)N(NC(N)=O)C(C)(O)C12CCOC2=O` (centres undefined), the TGI with ACHN renal was over 100 µM; with CCRF-CEM leukemia, over 100 µM; in the test on EKVX NSCLC, over 100 µM; in the test with HCC-2998 colon, 45.1 µM; with NCI-H226 lung it was over 100 µM; in the test on NCI-H522 lung, over 100 µM. In addition, the TGI in the test with OVCAR-3 ovarian and in the test on SNB-19 CNS was over 100 µM in each case.
